Test results from patent US20110009379A1, “INDOLINONE COMPOUND” (ASTELLAS PHARMA INC., priority 2008, published 2011).

Columns and labels:
human TRPA1 = molecular target: T1, human TRPA1 (Homo sapiens, UniProt O75762, K186N/R3C/R58T); test: Measurement of TRPA1 activation activity (intracellular calcium, FLIPR, HEK293 cells stably expressing human TRPA1); type: cell-based; settings: change of intracellular calcium concentration
T1 construct: expressed in transfected cells; pcDNA3.1(+) vector)
Protocol: 10 ng of Human brain mRNA (Clontech Co.) was treated with DNase, and then was reverse transcribed using kit for reverse transcription-polymerase chain reaction (RT-PCR) (SUPERSCRIPT First-Strand Synthesis System for RT-PCR; Invitrogen Co.) to synthesize the first strand cDNA. PCR using a hot start method was performed using the first strand cDNA as a template and Taq DNA polymerase (LA Taq DNA polymerase; TAKARA SHUZO). The PCR was performed using oligonucleotides consisting of the nucleotide sequences, represented by sequence number 2 as a sense primer and sequence number 3 as an antisense primer, in which firstly, heat denaturation was performed at 98° C. (1 minute), and then a cycle of 98° C. (15 seconds)/56° C. (30 seconds)/72° C. (5 minutes) was repeated 35 times. As a result, a DNA fragment of about 3.3 kbp was amplified.
The DNA fragment was cloned to pCR-TOPO vector using a cloning kit (TOPO XL PCR Cloning Kit; Invitrogen). The obtained plasmid DNA was digested with restriction enzymes KpnI and HindIII, and then was cloned using plasmid pcDNA 3.1(+)(Invitrogen). In this connection, the plasmid pcDNA 3.1(+) has a promoter sequence derived from cytemegalovirus, and can be used in order to express a protein in animal cells.
The nucleotide sequences of the obtained clones were analyzed using DNA sequencer (ABI3700 DNA Sequencer; Applied Biosystems) by dideoxyterminator method, and the nucleotide sequence represented by sequence number 1 was obtained. Furthermore, when these sequences were translated to amino acid sequences, the amino acid sequence represented by sequence number 1 was obtained.
After constructing the expression vector of the human TRPA1 gene, selection by G418 was performed from the HEK293 cells which temporarily expressed TRPA1 by transfection operation to obtain cells stably expressing TRPA1. The above operation was performed according to known methods (experimental medicine supplementary volume, “Cultivation Cell Experimental Methods for Molecular Biology Study” published by Toshio Kuroki, Namho Hue and Kazuhiro Chida, 1995, Yodosha).
In order to measure the change of the intracellular calcium concentration in the cells stably expressing the human TRPA1, the change of the intracellular calcium concentration when a compound to be tested was added was measured using FLIPR (Molecular Device).
In order to measure the change of the intracellular calcium concentration with FLIPR, the following pretreatment was performed. First of all, assay buffer was prepared which was for adding fluorescent pigment Fluo4-AM (DOJIN) to the cells or washing the cells just before performing FLIPR assay. To a solution (hereinafter, HBSS/HEPES solution) where 20 mL of 1M HEPES (pH 7.4; Invitrogen) was added to 1000 mL of a physiological saline buffer (Hank's Balanced Salt Solution; HBSS) (Invitrogen), was added 10 mL of a solution where 710 mg of probenecid (Sigma) was dissolved into 5 mL of 1M aqueous NaOH solution and 5 mL of HBSS/HEPES solution was further added and mixed, and the assay buffer was thus prepared. Then, 50 μg of Fluo4-AM was dissolved into 22 μL of DMSO (DOJIN), the same amount of 20% pluronic acid (Molecular Probes) was added thereto and mixed, and the mixture was added to the 10.6 mL of the assay buffer where 105 μL of fetal bovine serum was added, to prepare a fluorescent pigment solution. The medium of the cells stably expressing TRPA1 was removed, 100 μL per well of the fluorescent pigment solution was dispensed immediately, followed by cultivation in a CO2 cultivator for 1 hour, and the fluorescent pigment was soaked in the cells. The cells after cultivation were washed using the assay buffer, followed by being set in FLIPR. Furthermore, a test sample, which was added to the cells stably expressing TRPA1, was prepared by using the assay buffer, and at the same time, was set in FLIPR. […]

RIN14B cells = test: Measurement of 5-HT secretion from RIN14B; type: cell-based; settings: 20 minutes at 37° C., relative to 300 μM allyl isothiocyanate = 100%, HBSS only = 0%
Protocol: In order to investigate whether TRPA1 is related to 5-HT release, 5-HT secretion promotion from RIN14B by a compound to be tested was measured.
The RIN14B cells cultivated in a petri dish were scraped using Phosphate buffered saline (PBS) containing 1 mM EDTA, distributed into 24 well plates, and cultivated for 2 days. As a medium, a medium in which 10% fetal bovine serum (ICN), 100 U/mL penicillin, and 100 μg/mL streptomycin was added to RPMI1640 (Invitrogen), was used. The cells were washed once with HBSS (Invitrogen) and added with 0.1% BSA and 10 μM fluoxetine (TOCRIS Co.), followed by dilution with the above HBSS, the prepared compound to be tested was added to RIN14B cells, followed by cultivation at 37° C., under 5% CO2 condition for 20 minutes. After cultivation, supernatant of cells was recovered, followed by freeze preservation. The content of 5-HT in the supernatant was measured by a commercial serotonin immunoassay kit (Beckman). 5-HT release promotion activation value (%) was evaluated as a relative value when the 5-HT release promotion value by 300 μM of allyl isothiocyanate was defined as 100%, and the 5-HT release promotion value by HBSS for dilution only was defined as 0%.

[1] = system: delay of discharging time induced by loperamide in mice; test: Loperamide induced constipation model (glass bead discharging time); type: in vivo; settings: Mus musculus; mice (Slc:ddY, male), 0.3 mg/kg loperamide subcutaneously, compound orally; read-out: ED50 (amount which suppresses 50% of the delay of discharging time induced by loperamide)
Protocol: It has been known that loperamide as a μ opioid receptor agonist causes convulsive contraction in intestinal tracts. Thus, a delay in the intestinal transport ability due to loperamide is thought as a constipation IBS model.
Mice (Slc:ddY, five-week old, male) fasted from the previous evening of the experiment. On the day of the experiment, the mice were acclimatized to cages for measurement for 1 hour or more, and 0.3 mg/kg of loperamide was administered subcutaneously. After 30 minutes, a compound to be tested was administered orally, ether anesthesia was applied to the mice immediately thereafter, glass beads having diameter of 3 mm were inserted to 2 cm from anus. The mice were returned to the cages for measurement, and the time from waking to discharging of the glass beads was measured. Furthermore, the compound to be tested was dissolved into 10% DMSO, 10% cremophor, and 80% distillated water.
As a result, it has been recognized that there was a delay in the beads discharging time of the loperamide administration group (vehicle group) in comparison with the loperamide non-administration group (control group).
ED50 values (amount of the compound to be tested which suppresses 50% of the delay of discharging time induced by loperamide) of some of the compounds of the formula (I) are shown in Table 3. In this connection, comparative compound 1 is the same compound as comparative compound 1 in Test Example 4.

Cytochrome P450(2D6) = Cytochrome P450(2D6) (Homo sapiens, UniProt P10635); test: Cytochrome P450(2D6) enzyme inhibition test; type: in vitro ADME; settings: CYP2D6, fluorescent substrate 1.5 μmol/L, 37° C., 20 minutes
Protocol: The experiment was performed in accordance with the method of Crespi et al. (Analytical Biochemistry, 248, 188-190, 1997).
As a substrate, 3-[2-(N,N-diethyl-N-methylamino)ethyl]-7-methoxy-4-methyl coumarine (1.5 μmol/L) a compound to be tested (3.1×10^−7 to 2×10^−5 M) and an enzyme (2.5×10^−8 M) were incubated at 37° C. for 20 minutes in total of […] of 100 mM phosphorous buffer (pH=7.4) including 8.2 mM NADP+, 0.41 mM glucose-6-phosphate, 0.41 mM MgCl2 and 0.4 Units/mL glucose-6-phosphate dehydrogenase, using 96 well plates. Then, 0.5 M aqueous 2-amino-2-hydroxymethyl-1,3-propandiol solution containing 80% acetonitrile was added to stop the reaction, fluorescence intensity (excitation wavelength; 390 nm, fluorescent wavelength; 460 nm) was measured with a fluorescent plate reader. An inhibition ratio was calculated with the following formula, and the test compound concentration when the inhibition ratio is 50% (IC50) was obtained.
C1: fluorescence intensity in the presence of the test compound and enzyme at know concentrations, and the substrate
C0: fluorescence intensity in the presence of the enzyme and substrate, without the test compound
B1: fluorescence intensity of blank well

T1 sequence (O75762 whole entry R3C/R58T/K186N): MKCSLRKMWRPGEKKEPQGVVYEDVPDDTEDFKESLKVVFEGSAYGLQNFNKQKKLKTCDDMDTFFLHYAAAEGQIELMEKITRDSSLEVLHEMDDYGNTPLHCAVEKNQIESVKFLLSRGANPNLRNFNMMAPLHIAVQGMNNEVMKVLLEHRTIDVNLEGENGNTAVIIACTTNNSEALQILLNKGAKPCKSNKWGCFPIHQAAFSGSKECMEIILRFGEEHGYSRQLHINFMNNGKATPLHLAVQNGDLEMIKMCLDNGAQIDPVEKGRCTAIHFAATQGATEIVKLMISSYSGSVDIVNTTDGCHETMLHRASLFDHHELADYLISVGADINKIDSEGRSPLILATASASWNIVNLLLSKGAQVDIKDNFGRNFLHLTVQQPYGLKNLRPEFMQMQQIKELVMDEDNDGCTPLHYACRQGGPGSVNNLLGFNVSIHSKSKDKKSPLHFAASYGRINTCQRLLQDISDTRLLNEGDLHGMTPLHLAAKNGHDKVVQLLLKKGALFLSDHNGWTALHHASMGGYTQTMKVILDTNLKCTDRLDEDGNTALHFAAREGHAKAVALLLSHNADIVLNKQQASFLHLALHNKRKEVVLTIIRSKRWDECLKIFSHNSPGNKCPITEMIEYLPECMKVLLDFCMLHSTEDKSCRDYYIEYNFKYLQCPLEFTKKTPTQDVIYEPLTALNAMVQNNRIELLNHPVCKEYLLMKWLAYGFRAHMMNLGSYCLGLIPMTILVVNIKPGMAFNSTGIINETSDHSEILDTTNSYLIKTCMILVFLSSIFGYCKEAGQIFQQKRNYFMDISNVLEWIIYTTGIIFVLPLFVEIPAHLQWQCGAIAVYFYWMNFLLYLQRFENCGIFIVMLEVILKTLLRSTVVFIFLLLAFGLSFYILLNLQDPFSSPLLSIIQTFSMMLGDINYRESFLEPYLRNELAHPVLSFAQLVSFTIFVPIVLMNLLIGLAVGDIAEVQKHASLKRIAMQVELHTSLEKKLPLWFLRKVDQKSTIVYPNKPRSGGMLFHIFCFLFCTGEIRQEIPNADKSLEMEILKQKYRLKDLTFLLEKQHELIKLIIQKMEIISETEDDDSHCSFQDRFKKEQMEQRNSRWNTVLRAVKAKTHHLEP
Chain of Cytochrome P450(2D6) (P10635 whole entry): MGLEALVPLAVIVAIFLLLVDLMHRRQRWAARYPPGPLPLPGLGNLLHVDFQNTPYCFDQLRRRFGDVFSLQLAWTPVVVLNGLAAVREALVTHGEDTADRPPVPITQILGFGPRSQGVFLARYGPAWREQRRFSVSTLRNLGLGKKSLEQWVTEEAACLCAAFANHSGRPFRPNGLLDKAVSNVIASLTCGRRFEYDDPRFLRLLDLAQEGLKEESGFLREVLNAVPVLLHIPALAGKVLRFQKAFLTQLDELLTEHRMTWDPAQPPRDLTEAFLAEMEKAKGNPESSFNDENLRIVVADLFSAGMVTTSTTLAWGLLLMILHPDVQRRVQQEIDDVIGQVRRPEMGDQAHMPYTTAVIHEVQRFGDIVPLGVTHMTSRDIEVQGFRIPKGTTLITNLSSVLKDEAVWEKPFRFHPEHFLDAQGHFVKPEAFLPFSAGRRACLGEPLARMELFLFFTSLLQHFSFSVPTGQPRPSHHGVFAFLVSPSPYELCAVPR

O=C(O)/C=C1/C(=O)N(CC2CCCC2)c2ccccc21 [Example 26, (2E)-[1-(cyclopentylmethyl)-2-oxo-1,2-dihydro-3H-indol-3-ylidene]acetic acid]
EC50 (human TRPA1): 3 µM
5-HT release promotion activation value (RIN14B cells): 102.5%
ED50 [1]: 0.51 mg/kg
IC50 (Cytochrome P450(2D6)): > 20 µM
melting point: 140 to 142 °C
